The values that follow come from patent US20250136658A1, “ANTICONVULSANT AND NEUROPROTECTIVE AGENT” (THE UAB RESEARCH FOUNDATION, priority 2022, published 2025).

For data set [1], the target named is T1, GST-Nrb331-453 and [35S]-labeled A1R202-326 (A1R-neurabin interaction) (Homo sapiens, UniProt Q9ULJ8).
T1 construct: made in house
T1 sequence (Q9ULJ8 331-453): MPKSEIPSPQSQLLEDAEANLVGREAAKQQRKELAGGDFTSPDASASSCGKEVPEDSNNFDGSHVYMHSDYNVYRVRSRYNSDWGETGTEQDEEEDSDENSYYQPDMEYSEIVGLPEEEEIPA
In words: In vitro GST competition pull-down. It counts as binding. The settings on record: peptide 0.1 μg/μl. From the text:
FIG. 5A is a competition pull-down assay testing the abilities of A1R 3i loop (3iL) and C-tail (CT) peptides in blocking the interaction between GST-Nrb331-453 and [^35S]-labeled A1R202-326. […] A1R202-326 pulled down by GST-Nrb331-453. Free probe represents 1/10 of the input in each reaction.
FIG. 5B is a competition pull-down assay testing the abilities of A1R 3i loop (3iL) and C-tail (CT) peptides in blocking the interaction between GST-Nrb331-453 and [^35S]-labeled A1R202-326. In the graphical representation, quantitation of the amount of [^35S] A1R202-326 pulled down by GST-Nrb331-453 is shown. Free probe represents 1/10 of the input in each reaction. * represents p<0.05 vs. BSA control by one-way ANOVA Dunnett's multiple comparisons test. N=3/group.
Preparation of GST fusion proteins, synthesis of [^35S]-labeled in vitro translated probes, and pull-down assays were performed as described previously (See, for example, Chen Y, Booth C, Wang H, Wang R X, Terzi D, Zachariou V, et al. Effective Attenuation of Adenosine A1R Signaling by Neurabin Requires Oligomerization of Neurabin. Mol Pharmacol. 2017; 92 (6): 630-9; and Chen Y, Liu Y, Cottingham C, McMahon L, Jiao K, Greengard P, et al. Neurabin scaffolding of adenosine receptor and RGS4 regulates anti-seizure effect of endogenous adenosine. J Neurosci. 2012, 32 (8): 2683-95). […]

In data set [2] the test system is PTZ-induced seizures. The data set can be described thus: PTZ-induced seizure in WT and neurabin null mice. It counts as in vivo. On the procedure:
(§1) Induction and evaluation of seizure were performed as described previously (See, for example, Chen Y, Liu Y, Cottingham C, McMahon L, Jiao K, Greengard P, et al. Neurabin scaffolding of adenosine receptor and RGS4 regulates anti-seizure effect of endogenous adenosine. J Neurosci. 2012, 32 (8): 2683-95). Ten to twelve week-old male mice were injected (i.p.) with kainate (Sigma) at 20 or 25 mg/kg (dissolved in saline), together with or without DPCPX (Sigma, 0.5 mg/kg in saline) or yohimbine (Sigma, 0.5 mg/kg in saline). Seizure severity was scored by trained observers blind to genotype and/or treatment. The severity of seizure behaviors was scored on a scale of 0 to 7, with 0 representing normal behavior and 7 representing death (see, for example, Yang D D, Kuan C Y, Whitmarsh A J, Rincon M, Zheng T S, Davis R J, et al. Absence of excitotoxicity-induced apoptosis in the hippocampus of mice lacking the Jnk3 gene. Nature. 1997, 389 (6653): 865-70; and Cottingham C, Chen Y, Jiao K, and Wang Q. The antidepressant desipramine is an arrestin-biased ligand at the alpha (2A)-adrenergic receptor driving receptor down-regulation in vitro and in vivo. J Biol Chem. 2011, 286 (41): 36063-75). To induce seizures with pentylenetetrazole (PTZ), mice were injected (i.p.) with PTZ at 40 mg/kg (dissolved in saline), with or without 8-Cyclopentyl-1,3-dipropylxanthine (DPCPX). Seizure severity was scored every 4 min for 30 min.

In data set [3] the test system is kainate-induced seizures. In words: Kainate-induced seizure in WT and Rgs4-/- mice. In kind it is in vivo. How it is done: as §1, with “To induce seizures with pentylenetetrazole (PTZ), mice were injected (i.p.) with PTZ at 40 mg/kg (dissolved in saline), with or without 8-Cyclopentyl-1,3-dipropylxanthine (DPCPX).” left out
Data set [4] deals with kainate-induced seizures. In words: Kainate-induced seizure in mice given peptide (icv or intranasal). In kind it is in vivo. On the procedure:
as §1, with “To induce seizures with pentylenetetrazole (PTZ), mice were injected (i.p.) with PTZ at 40 mg/kg (dissolved in saline), with or without 8-Cyclopentyl-1,3-dipropylxanthine (DPCPX).” left out, “min. […]” for “min.”

The test system of data set [5] is spontaneous epileptic spikes in APP/PS1 mice. In words: EEG recording of spontaneous epileptic activity in APP/PS1 mice. In kind it is in vivo. As to conditions: intranasal peptide plus i.p. DPCPX. How it is done: Implantation of electrodes for EEG recordings was performed under isoflurane anesthesia (4.5% for induction, approximately 2% for maintenance). In brief, 1 mm stainless steel electrodes (P1 Technologies, Roanoke, VA) were implanted into the primary somatosensory cortex at 1.8, 0.02, 1 (AP, ML, DV), and reference electrodes anterior to the bregma were implanted subdurally through small holes drilled in the skull. These electrodes were held in place with Dental cement kit (Stoelting), C&B Metabond Quick Adhesive Cement System (Parkell). The ground electrode was sutured in the cervical paraspinous area. […] EEG activity was recorded for 20 hrs using Biopac Systems amplifiers (Biopac Systems EEG100C) and AcqKnowledge 4.2 EEG Acquisition and analyzed with the Reader Software (Biopac Systems).
A total of 150 hrs of data was analyzed, 54 hrs for nTg mice and 96 hrs for APP/PS1 transgenic mice. Six hrs of recording were analyzed for each animal. […] When p-operator algorithm detected a spike, all signals were visually inspected to include in the analysis only those that were true positives in order to avoid non-epileptic artifacts caused by electrical noise (e.g., grooming) during spike selection. Spectral content of EEG signals were calculated using short-time Fourier transform (FFT).

Data set [6] concerns Akt phosphorylation at Thr 308. In words: A1R-mediated Akt activation in primary hippocampal neurons (Western blot). In kind it is cell-based, mice. How it is done:
Primary hippocampal neurons derived from WT or neurabin deficiency (Ppp1r9a^−/−) mice were treated with R-PIA at the indicated concentrations. Representative blots of phospho-Akt (pAkt, Thr308) are shown.
Primary hippocampal neurons derived from WT or neurabin deficiency (Ppp1r9a^−/−) mice were treated with R-PIA at the indicated concentrations. Quantitation of phospho-Akt (pAkt, Thr308) is shown. *** represents p<0.001 by two-way ANOVA. N=4/group.
WT and Ppp1r9a^−/− neurons were stimulated with 1 μM R-PIA for the indicated time durations. Representative blots of pAkt are shown.
WT and Ppp1r9a^−/− neurons were stimulated with 1 μM R-PIA for the indicated time durations. Quantitation of pAkt is shown. * represents p<0.05; ** represents p<0.01; **** represents p<0.0001 by two-way ANOVA for multiple comparisons. N=4/group. Data are shown as mean±SEM.

The subject of data set [7] is hippocampal CA3-CA1 synapses. In words: fEPSP recording in acute hippocampal slices. It counts as cell-based, mice.
Data set [8] deals with primary hippocampal neurons. The data set can be described thus: Glutamate-induced cell death in primary hippocampal neurons. In kind it is cell-based, mice. As to conditions: 100 μM glutamate plus 10 μM R-PIA. How it is done:
Primary hippocampal culture was performed as described previously (Chen Y, Liu Y, Cottingham C, McMahon L, Jiao K, Greengard P, et al. Neurabin scaffolding of adenosine receptor and RGS4 regulates anti-seizure effect of endogenous adenosine. J Neurosci. 2012, 32 (8): 2683-95). […] In brief, hippocampal neurons were cultured in 24-well plates for 13-14 days in vitro and treated with (1) vehicle, (2) 100 μM glutamate alone, (3) 100 μM glutamate plus 10 μM R-PIA, (4) 100 μM glutamate, 10 μM R-PIA, plus 30 μM LY294002, for 30 min at 37° C. Neurons were then washed twice, and incubated with regular growth medium at 37° C. for an additional 24 hrs. Neurons were stained with 4 μM calcein-AM and 4 μM EthD-1 in DPBS and mounted for imaging under a fluorescence microscope.

On to “A1R-CT: peptide carrying the sequence of the A1R C-tail (aa293-326), without TAT fusion (QKFRVTFLKIWNDHFRCQPAPPIDEDLPEERPDD; UniProt P30542 293-326, looked up, fragment)”, for which the “direct interaction of A1R (aa202-326) with Nrb331-453” value in data set [1] is reported as “markedly reduced”.
Turning to `C1CCc2nnnn2CC1` [PTZ, pentylenetetrazole], in data set [2] (WT mice, PTZ alone), the “PTZ-induced lethality within 40 minutes” value is “About 10%”.
As for `C=C(C)[C@H]1CN[C@H](C(=O)O)[C@H]1CC(=O)O` [kainate], the mortality after kainate result in data set [3] (WT mice, kainate 20 mg/kg) was “over 40%”.
With `CCCn1c(=O)c2[nH]c(C3CCCC3)nc2n(CCC)c1=O` [DPCPX, 8-Cyclopentyl-1,3-dipropylxanthine], the “anti-seizure effect of A1R-CT on co-treatment with DPCPX” value in data set [4] (icv peptide) was “no longer observed”. Further, in data set [4] (intranasal peptide), the “anti-seizure effect of TAT-A1R-CT peptide on co-treatment with DPCPX” value is “abolished”. The “effect of A1R blockade on seizure severity and mortality rate” value in data set [3] (Rgs4-/- mice, kainate plus DPCPX, to a level similar to WT) was “increased the seizure severity and mortality rate”. Also, in data set [5], the “effect of TAT-A1R-CT on epileptic activities with DPCPX” value was “failed to reduce epileptic activities”. Further, the “PTZ-induced seizure severity on co-treatment with DPCPX” value in data set [2] (WT and neurabin null mice, vs PTZ alone) was “continued to progress to a much more severe level”. The “death after combined treatment with PTZ and DPCPX” value in data set [2] (both genotypes (WT, Ppp1r9a-/-)) is recorded as “more than 55%”.
With “3i loop peptide: peptide carrying the sequence of the A1R 3i loop (aa202-235) (EVFYLIRKQLNKKVSASSGDPQKYYGKELKIAKS; UniProt P30542 202-235, looked up, fragment)”, the “direct interaction of A1R (aa202-326) with Nrb331-453” value in data set [1] is listed as “no effect”.
On to `CC(Cc1ccccc1)Nc1ncnc2c1ncn2[C@@H]1O[C@H](CO)[C@@H](O)[C@H]1O` (single isomer, unassigned; (-)) [R-PIA, (−)-N6-(2-Phenylisopropyl) adenosine], for which the “Akt phosphorylation at Thr 308” value in data set [6] (WT neurons) is given as “dose-dependent increase”. Also, the “Akt activation over time” value in data set [6] (WT neurons, 1 μM R-PIA) is on record as “desensitized after 30 min stimulation”. For the same molecule, the “phospho-Akt levels at 30 min” value in data set [6] (neurons lacking neurabin, 1 μM R-PIA) was “no apparent reduction”. Also, the “Akt phosphorylation vs WT neurons” value in data set [6] (neurons lacking neurabin, same dose) is “significantly higher level of Akt phosphorylation”. Further, in data set [7] (WT mice slices, 100 nM), the “inhibition of baseline transmission” value was “about 75%”. Also, in data set [7] (WT mice slices, 10, 30, 100 nM), the “inhibition of fEPSP” value is listed as “dose-dependently inhibited”. For the same molecule, in data set [7] (slices from Ppp1r9a-/- or Rgs4-/- mice, same concentration (10 nM, FIG. 2E-F)), the “inhibition of fEPSP vs WT slices” value is reported as “significantly higher level of inhibition”. For the same molecule, the “effect on glutamate-induced neuronal death” value in data set [8] is on record as “protective effect”.
